Data reported in patent publication US9457089B2, “Highly concentrated aqueous protein solution with reduced viscosity” (ADOCIA, priority 2012, dated 2016).
Where a name gives a salt, the structure may show the parent alone.

Legend:
[1] = cited from earlier work
infliximab = test: Viscosity reduction of highly concentrated infliximab solution (cone/plate rheometer); assay type: physicochemical; conditions: for % viscosity reduction relative to the control infliximab solution: pH 7.2±0.2
Text: (§1) For this example, three solutions of monoclonal antibodies, i.e. a solution of bevacizumab (an IgG1 sold under the name Avastin® by Genentech/Hoffmann La Roche), a solution of infliximab (an IgG1/κ sold under the name Remicade® by Schering-Plough) and a solution of trastuzumab (an IgG1/κ sold under the name Herceptin® by Genentech), were concentrated by ultrafiltration on Amicon® Ultra-15 centrifuge filtration units with a cutoff threshold of 50 kDa. The protein concentration of each concentrated solution was measured by UV spectroscopy (absorbance at 280 nm) after dilution of the samples.
(§2) The commercial solution of bevacizumab (25 mg/ml) was concentrated to 268 mg/ml. […] Once reconstituted, the infliximab and trastuzumab formulations were concentrated to, respectively, 183 mg/ml and 243 mg/ml.
(§3) The effect of uridine compared with that of arginine and of NaCl on the viscosity of these three highly concentrated therapeutic protein solutions was then evaluated. For this, the viscosity was measured using a cone/plate rheometer (TA Instruments, AR 2000 Ex, geometry or diameter 20 mm, cone of 0.5131°, solvent trap filled with water) at a temperature of 21° C. and in flow sweep mode with shear rates of between 5000 and 50 s^−1 (3 points per decade-steady-state sensing). All the viscosity values are determined at the level of the Newtonian plateau.
The samples thus prepared were stored at ambient temperature and were analyzed using a rheometer within 24 hours of their preparation. […]
(§4) The pH of these formulations (“Protein+Urid”, “Protein+Arg” and “Protein+NaCl” and “controls”) is the same as that of the commercial formulation of the corresponding therapeutic protein (table II).
(§5) The results of the measurements relating to this second example are given in table III hereinafter in the form of percentages of viscosity reduction relative to the control solution of therapeutic protein alone, at the same protein concentration as the “Protein+Urid”, “Protein+Arg” or “Protein+NaCl” formulations.
(§6) In this study, the highly concentrated bevacizumab and infliximab solutions used are the same as those which were prepared and used previously. The “Protein+Cyt”, “Protein+Deoxycyt”, “Protein+Urid”, “Protein+Arg”, “Protein+NaCl” and “Protein+ATP” formulations were prepared in the presence of 150 mM of cytidine, of 2′-deoxycytidine, of uridine, of arginine, of NaCl or of sodium salt of adenosine 5′-triphosphate.
(§7) The viscosity of the “Protein+Cyt”, “Protein+Deoxycyt” and “Protein+Urid” formulations was then measured as described in example 2 and compared with that obtained for the “Protein+Arg”, “Protein+NaCl” and “Protein+ATP” formulations. The pH of these formulations is the same as that of the corresponding therapeutic protein formulation, i.e. 6.2±0.2 for bevacizumab and 7.2±0.2 for infliximab.
(§8) The results of the measurements relating to this example are given in tables IV and V hereinafter in the form of percentages of viscosity reduction relative to the control solution of therapeutic protein alone, at the same protein concentration as the “Protein+Cyt”, “Protein+Deoxycyt”, “Protein+Urid”, “Protein+Arg”, “Protein+NaCl” and “Protein+ATP” formulations.
The highly concentrated infliximab solution used is the same as that which was prepared previously. The “Protein+Cyt” and “Protein+Arg” formulations were prepared in the presence of 150 mM of cytidine or of arginine and with infliximab concentrations decreasing from 150 mg/ml to 80 mg/ml.
The pH of these formulations is the same as that of the commercial infliximab formulation, i.e. 7.2±0.2. The viscosity of the formulations thus prepared was measured as described in example 2.
The results of the measurements relating to this example are given in table VI hereinafter in the form of percentages of viscosity reduction relative to the control Infliximab solution.
The highly concentrated infliximab solution used is the same as that which was prepared and used previously. […]

bevacizumab = test: Viscosity reduction of highly concentrated bevacizumab solution (cone/plate rheometer); assay type: physicochemical; conditions: bevacizumab 220 mg/ml, 150 mM agent
Text: as §1, §2, §3
(§9) For this example, the “Protein+Urid”, “Protein+Arg” and “Protein+NaCl” formulations were prepared by mixing one of the previously prepared undine, arginine or NaCl solutions, with Milli-Q® water and with one of the previously prepared concentrated protein solutions so as to achieve a final uridine, arginine or NaCl concentration of 150 mmol/l (mM) and a final protein concentration of 220 mg/ml for bevacizumab, 150 mg/ml for infliximab and 200 mg/ml for trastuzumab. The samples thus prepared were stored at ambient temperature and were analyzed using a rheometer within 24 hours of their preparation.
(§10) The “control” solutions are prepared by dilution in Milli-Q® water, so as to achieve a final protein concentration of 220 mg/ml for bevacizumab, 150 mg/ml for infliximab and 200 mg/ml for trastuzumab.
as §4, §5, §6, §7, §8

trastuzumab = test: Viscosity reduction of highly concentrated trastuzumab solution (cone/plate rheometer); assay type: physicochemical; conditions: trastuzumab 200 mg/ml, 150 mM agent, pH 6.0±0.2, 21° C. (Table III)
Text: as §1, §2, §3, §9, §10, §4, §5

[2] = infliximab 150 mg/ml, 150 mM agent, pH 7.2±0.2 (Table V)
[3] = Infliximab 105 mg/ml, 50 mM agent, pH 7.2
[4] = Infliximab 105 mg/ml, 150 mM agent, pH 7.2 (Table VII)
[5] = Infliximab 105 mg/ml, 300 mM agent, pH 7.2
[6] = infliximab 150 mg/ml, 150 mM agent, pH 7.2±0.2, 21° C. (Table III)
[7] = infliximab 80 mg/ml, 150 mM agent
[8] = infliximab 105 mg/ml, 150 mM agent
[9] = infliximab 125 mg/ml, 150 mM agent
[10] = infliximab 140 mg/ml, 150 mM agent
[11] = infliximab 150 mg/ml, 150 mM agent

| Structure (SMILES) | % viscosity reduction relative to the “protein alone” control (infliximab; [2]) | % viscosity reduction relative to the “protein alone” control (bevacizumab; pH 6.2±0.2 (Table IV)) | % viscosity reduction relative to the “protein alone” control (trastuzumab) | % viscosity reduction relative to the “protein alone” control (infliximab; [3]) | % viscosity reduction relative to the “protein alone” control (infliximab; [4]) | % viscosity reduction relative to the “protein alone” control (infliximab; [5]) | % viscosity reduction relative to the “protein alone” control (infliximab; [6]) | % viscosity reduction relative to the “protein alone” control (bevacizumab; pH 6.2±0.2, 21° C. (Table III)) | other results |
| --- | --- | --- | --- | --- | --- | --- | --- | --- | --- |
| Nc1nc2c(ncn2[C@@H]2O[C@H](CO)[C@@H](O)[C@H]2O)c(=O)[nH]1 [guanosine] |  |  |  |  |  |  |  |  | solubility (in words) [1]: very poor solubility |
| Nc1ccn([C@H]2C[C@H](O)[C@@H](CO)O2)c(=O)n1 [Deoxycyt, 2′-Deoxycytidine] | 75% | 51% |  |  |  |  |  |  |  |
| [Cl-].[Na+] [NaCl, Sodium chloride] | 6% | 24% | 34% | 20% | −6% | −90% | 6% | 24% |  |
| Nc1ccn([C@@H]2O[C@H](CO)[C@@H](O)[C@H]2O)c(=O)n1 [Cyt, Cytidine] | 76% | 43% |  | 39% | 68% | 72% |  |  | % viscosity reduction relative to the control infliximab solution (infliximab; [7]): 58%; % viscosity reduction relative to the control infliximab solution (infliximab; [8]): 68%; % viscosity reduction relative to the control infliximab solution (infliximab; [9]): 69%; % viscosity reduction relative to the control infliximab solution (infliximab; [10]): 77%; % viscosity reduction relative to the control infliximab solution (infliximab; [11]): 76% |
| O=c1ccn([C@@H]2O[C@H](CO)[C@@H](O)[C@H]2O)c(=O)[nH]1 [Urid, Uridine] | 70% | 64% | 35% |  |  |  | 70% | 64% | % viscosity reduction relative to the “protein alone” control (trastuzumab; listed as uridine): 35%; % viscosity reduction relative to the “protein alone” control (infliximab; infliximab 150 mg/ml, 150 mM agent, pH 7.2±0.2, 21° C. (Table III), listed as uridine): 70%; % viscosity reduction relative to the “protein alone” control (bevacizumab; pH 6.2±0.2, 21° C. (Table III), listed as uridine): 64% |
| Nc1ncnc2c1ncn2[C@@H]1O[C@H](COP(=O)(O)OP(=O)(O)OP(=O)(O)O)C(O)C1O (stereo partly drawn) [ATP, Sodium salt of adenosine 5′-triphosphate] | 0% | −14% |  |  |  |  |  |  | effect on the viscosity of infliximab (in words) (infliximab; [11]): does not make it possible to reduce the viscosity; effect on the viscosity of bevacizumab (in words) (bevacizumab): does not make it possible to reduce the viscosity; increase of the viscosity of bevacizumab (bevacizumab): 14%; effect on the viscosity of bevacizumab (in words) (bevacizumab; listed as sodium salt of adenosine 5′-triphosphate): does not make it possible, a fortiori, to reduce the viscosity |
| Cl.N=C(N)NCCC[C@H](N)C(=O)O [Arg, L-arginine hydrochloride salt] | 55% | 46% | 48% | 32% | 46% | 58% | 55% | 46% | % viscosity reduction relative to the control infliximab solution (infliximab; [7]): 36%; % viscosity reduction relative to the control infliximab solution (infliximab; [8]): 47%; % viscosity reduction relative to the control infliximab solution (infliximab; [9]): 46%; % viscosity reduction relative to the control infliximab solution (infliximab; [10]): 59%; % viscosity reduction relative to the control infliximab solution (infliximab; [11]): 55% |
